# According to patent US20250332266A1, “COMPOUNDS FOR THE DEGRADATION OF EGFR KINASE” (BeiGene Switzerland GmbH, priority 2022, published 2025):
# How the values were obtained:
# [1] = target: EGFR Del19/T790M/C797S (H1975-clone #28) (Homo sapiens, UniProt P00533, T790M/C797S, form not given); assay: EGFR degradation, HTRF total-EGFR assay, H1975-clone #28 (DTC); format: cell-based; conditions: H1975-clone #28 Del19/T790M/C797S, 16 h treatment
# Text: (§1) H1975-clone #28 (Del19/T790M/C797S, or abbr: DTC), H1975-clone #23 (Del19/C797S, or abbr: DC), H1975-clone #25 (L858R/T790M/C797S, or abbr: LTC) and H1975-clone #8 (L858R/C797S, or abbr: LC). EGFR-Del19/T790M/C797S, EGFR-Del19/C797S, EGFR-L858R/T790M/C797S and EGFR-L858R/C797S were stably expressed in H1975 cell lines by lentivirus-mediated over-expression, respectively. The EGFR over-expressed cells then underwent knockout, in which the EGFR targeting sgRNA was designed to only target the endogenous EGFR copies and preserve the exogenous EGFR copies. Followed by the knockout, the edited H1975 cells were seeded in 96 well plates at the concentration of 1 cell/well, cultured for about 2 weeks to allow single clones formation. The formed clones were screened by DNA sequencing and whole exon sequencing analysis for the desired edition. H1975-clone #28, H1975-clone #23, H1975-clone #25 and H1975-clone #8 were finally confirmed as homozygous Del19/T790M/C797S EGFR, Del19/C797S EGFR, L858R/T790M/C797S EGFR and L858R/C797S EGFR clones, respectively.
# (§2) H1975-#25, H1975-#28, H1975-#23 and H1975-#8 cells are treated with compounds diluted in 0.2% DMSO cell culture medium on day 2, incubate for 16 h, 37° C., 5% CO2. The final concentration of compounds in all assay is start with 10 μM, 5-fold dilution, total 8 doses were included.
# (§3) Total-EGFR cellular kit(64NG1PEH) were used for evaluating EGFR degradation.
# (§4) After 16 h treatment, add HTRF lysis buffer to each well; seal the plate and incubate 1 hour at room temperature on a plate shaker; Once the cells are lysed, 16 μL of cell lysate are transferred to a PE 384-well HTRF detection plate; 4 μL of pre-mixed HTRF antibodies are added to each well; cover the plate with a plate sealer, spin 1000 rpm for 1 min, incubate overnight at room temperature; read on BMG PheraStar with HTRF protocol (337 nm-665 nm-620 nm).
# (§5) The inhibition (degradation) percentage of the compound was calculated by the following equation:
# (§6) Inhibition percentage of Compound=100−100×(Signal−low control)/(High control−low control), wherein signal=each test compound group
# (§7) High control=Cell group with added DMSO and without compound, indicating microplate readings without EGFR degradation.
# (§8) Imax (Dmax) is the maximum percentage of inhibition (degradation).
# (§9) The IC50 (DC50) value of a compound can be obtained by fitting the following equation
# (§10) Wherein, X and Y are known values, and IC50, Hillslope, Top and Bottom are the parameters obtained by fitting with software. Y is the inhibition percentage (calculated from the equation), X is the concentration of the compound; IC50 is the concentration of the compound when the 50% inhibition is reached. The smaller the IC50 value is, the stronger the inhibitory ability of the compound is. Vice versa, the higher the IC50 value is, the weaker the ability the inhibitory ability of the compound is; Hillslope represents the slope of the fitted curve, generally around 1*; Bottom represents the minimum value of the curve obtained by data fitting, which is generally 0%±20%; Top represents the maximum value of the curve obtained by data fitting, which is generally 100%±20%. The experimental data were fitted by calculating and analyzing with Dotmatics data analysis software.
# [2] = target: T1, EGFR L858R/T790M/C797S (H1975-clone #25) (Homo sapiens, UniProt P00533, C797S/L858R/T790M); assay: EGFR degradation, HTRF total-EGFR assay, H1975-clone #25 (LTC); format: cell-based; conditions: H1975-clone #25 L858R/T790M/C797S, 16 h treatment
# T1 construct: expressed in transfected cells; host or cells: H1975 (clone #25), lentiviral transduction, endogenous EGFR knocked out
# Text: as §1, §2, §3, §4, §5, §6, §7, §8, §9, §10
# T1 sequence (P00533 25-1210 T790M/C797S/L858R): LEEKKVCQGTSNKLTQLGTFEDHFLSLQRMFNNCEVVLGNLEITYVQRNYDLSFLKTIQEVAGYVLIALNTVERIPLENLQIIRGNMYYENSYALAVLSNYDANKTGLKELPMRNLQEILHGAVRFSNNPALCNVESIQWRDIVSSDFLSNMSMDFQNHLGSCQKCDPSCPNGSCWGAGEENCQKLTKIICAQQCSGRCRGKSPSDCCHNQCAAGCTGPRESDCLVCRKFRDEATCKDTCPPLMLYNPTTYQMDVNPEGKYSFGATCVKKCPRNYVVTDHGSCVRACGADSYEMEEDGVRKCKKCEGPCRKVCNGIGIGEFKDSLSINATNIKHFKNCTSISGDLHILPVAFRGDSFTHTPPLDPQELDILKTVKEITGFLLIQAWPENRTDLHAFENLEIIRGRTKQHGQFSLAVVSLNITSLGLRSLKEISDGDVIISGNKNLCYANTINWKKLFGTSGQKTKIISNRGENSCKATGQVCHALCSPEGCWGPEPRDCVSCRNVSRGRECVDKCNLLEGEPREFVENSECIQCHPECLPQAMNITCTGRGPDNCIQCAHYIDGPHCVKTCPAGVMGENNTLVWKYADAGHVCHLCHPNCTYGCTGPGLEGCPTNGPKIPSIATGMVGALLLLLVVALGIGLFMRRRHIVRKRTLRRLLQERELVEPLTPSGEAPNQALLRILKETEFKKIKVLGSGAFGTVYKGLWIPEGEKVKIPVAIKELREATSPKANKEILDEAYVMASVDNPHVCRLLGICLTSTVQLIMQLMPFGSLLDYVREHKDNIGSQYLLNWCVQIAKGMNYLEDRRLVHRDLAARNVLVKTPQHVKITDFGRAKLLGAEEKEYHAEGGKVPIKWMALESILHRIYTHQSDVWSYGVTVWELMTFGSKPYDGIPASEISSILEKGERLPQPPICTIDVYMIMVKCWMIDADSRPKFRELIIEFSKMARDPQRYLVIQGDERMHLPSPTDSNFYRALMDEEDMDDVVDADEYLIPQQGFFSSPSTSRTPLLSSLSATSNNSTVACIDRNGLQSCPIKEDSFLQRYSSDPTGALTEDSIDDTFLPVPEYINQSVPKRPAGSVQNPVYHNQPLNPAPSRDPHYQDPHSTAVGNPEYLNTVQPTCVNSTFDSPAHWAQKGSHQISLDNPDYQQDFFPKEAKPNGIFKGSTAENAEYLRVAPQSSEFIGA
# Chain of EGFR Del19/T790M/C797S (H1975-clone #28) (P00533 with tags, fused parts or gaps DEL746-750/T790M/C797S, form open): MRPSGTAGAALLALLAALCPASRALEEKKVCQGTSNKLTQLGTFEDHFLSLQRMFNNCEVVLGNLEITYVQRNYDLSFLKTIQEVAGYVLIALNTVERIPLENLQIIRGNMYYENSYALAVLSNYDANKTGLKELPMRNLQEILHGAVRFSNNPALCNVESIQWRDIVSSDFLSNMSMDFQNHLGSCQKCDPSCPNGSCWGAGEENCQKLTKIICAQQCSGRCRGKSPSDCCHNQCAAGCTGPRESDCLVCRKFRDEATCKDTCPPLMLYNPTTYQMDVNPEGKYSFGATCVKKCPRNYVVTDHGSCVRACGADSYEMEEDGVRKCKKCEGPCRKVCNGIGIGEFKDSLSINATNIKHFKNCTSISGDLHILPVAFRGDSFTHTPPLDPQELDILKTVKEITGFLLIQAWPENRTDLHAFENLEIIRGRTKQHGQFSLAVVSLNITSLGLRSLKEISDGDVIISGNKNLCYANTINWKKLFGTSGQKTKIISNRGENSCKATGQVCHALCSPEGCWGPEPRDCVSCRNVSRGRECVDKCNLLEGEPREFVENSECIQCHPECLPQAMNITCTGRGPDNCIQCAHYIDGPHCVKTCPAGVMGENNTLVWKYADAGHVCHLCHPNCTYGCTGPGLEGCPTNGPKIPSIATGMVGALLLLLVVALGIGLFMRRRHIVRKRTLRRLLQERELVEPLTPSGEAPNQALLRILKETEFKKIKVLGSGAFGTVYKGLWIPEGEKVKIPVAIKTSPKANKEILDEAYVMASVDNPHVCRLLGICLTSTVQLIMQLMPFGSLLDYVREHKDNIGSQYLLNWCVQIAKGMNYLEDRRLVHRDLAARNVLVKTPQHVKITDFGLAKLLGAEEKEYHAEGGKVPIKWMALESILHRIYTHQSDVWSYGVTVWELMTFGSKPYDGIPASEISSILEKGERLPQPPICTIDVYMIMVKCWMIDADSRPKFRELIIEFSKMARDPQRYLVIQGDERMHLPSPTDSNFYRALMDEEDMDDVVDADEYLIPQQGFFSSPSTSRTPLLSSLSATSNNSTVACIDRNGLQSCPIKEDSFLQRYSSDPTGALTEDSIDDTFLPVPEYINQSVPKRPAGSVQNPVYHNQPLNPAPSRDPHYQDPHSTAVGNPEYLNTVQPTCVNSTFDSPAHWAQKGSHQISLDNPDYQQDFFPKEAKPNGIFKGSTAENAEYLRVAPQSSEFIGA
Compound,Degradation H1975 # 28 DTC [1],Degradation H1975 # 25-LTC [2]
"Cc1cc2cc(n1)-c1cnn(C)c1OC[C@H]1C[C@H](CN3/C(=N/C2=O)Nc2ccc(CN4CCN(C(=O)C5CN(c6cc(F)c([C@H]7CCC(=O)NC7=O)c(F)c6)CC5(C)C)CC4)cc23)C1 (stereo partly drawn) [Example 2, (R)-3-(4-((S)-4-(4-(((7^1r,7^3S,E)-1^1,2^6-dimethyl-3-oxo-5^2,5^3-dihydro-1^2H,5′H-9-oxa-4-aza-5(2,1)-benzo[d]imidazola-2(2,4)-pyridina-1(4,5)-pyrazola-7(1,3)-cyclobutanacyclononaphane-5^6-yl)methyl)piperazine-1-carbonyl)-3,3-dimethylpyrrolidin-1-yl)-2,6-difluorophenyl)piperidine-2,6-dione]",84.3,62.0
"Cc1cc2cc(n1)-c1cnn(C)c1OC[C@H]1C[C@@H](CN3/C(=N/C2=O)Nc2ccc(N4CCN(C5CCN(c6ccc(C7CCC(=O)NC7=O)nc6C)CC5)C[C@H]4C)cc23)C1 (stereo partly drawn) [Example 34, 3-(5-(4-((R)-4-((7^1s,7^3S,E)-1^1,2^6-dimethyl-3-oxo-5^2,5^3-dihydro-1^1H,5^1H-9-oxa-4-aza-5(2,1)-benzo[d]imidazola-2(2,4)-pyridina-1(4,5)-pyrazola-7(1,3)-cyclobutanacyclononaphane-5^6-yl)-3-methylpiperazin-1-yl)piperidin-1-yl)-6-methylpyridin-2-yl)piperidine-2,6-dione]",89.6,93.3
"Cc1cc2cc(n1)-c1cnn(C)c1OC[C@H]1C[C@@H](CN3/C(=N/C2=O)Nc2ccc(N4CCN(C5CN(C6CCN(c7ccc(C8CCC(=O)NC8=O)nc7C)CC6)C5)CC4)cc23)C1 (stereo partly shown) [Example 121, 3-(5-(4-(3-(4-((7^1s,7^3s,E)-1^1,2^6-dimethyl-3-oxo-5^2,5^3-dihydro-1^1H,5^1H-9-oxa-4-aza-5(2,1)-benzo[d]imidazola-2(2,4)-pyridina-1(4,5)-pyrazola-7(1,3)-cyclobutanacyclononaphane-5^6-yl)piperazin-1-yl)azetidin-1-yl)piperidin-1-yl)-6-methylpyridin-2-yl)piperidine-2,6-dione]",83.2,89.5
"Cc1cc2cc(n1)-c1cnn(C)c1OC[C@H]1C[C@@H](CN3/C(=N/C2=O)Nc2ccc(N4C[C@@H]5C[C@H]4CN5C4CCN(c5ccc(C6CCC(=O)NC6=O)nc5C)CC4)cc23)C1 (stereo partly drawn) [Example 117, 3-(5-(4-((1S,4S)-5-((7^1s,7^3R,E)-1^1,2^6-dimethyl-3-oxo-5^2,5^3-dihydro-1^1H,5^1H-9-oxa-4-aza-5(2,1)-benzo[d]imidazola-2(2,4)-pyridina-1(4,5)-pyrazola-7(1,3)-cyclobutanacyclononaphane-5^6-yl)-2,5-diazabicyclo[2,2,1]heptan-2-yl)piperidin-1-yl)-6-methylpyridin-2-yl)piperidine-2,6-dione]",78.2,90.6
"Cc1cc2cc(n1)-c1cnn(C)c1OC[C@H]1C[C@@H](CN3/C(=N/C2=O)Nc2ccc(N4CCN(C5CCN(c6ccc(C7CCC(=O)NC7=O)nc6)CC5)C(=O)C4)cc23)C1 (stereo partly shown) [Example 35, 3-(5-(4-(4-((7^1s,7^3s,E)-1^1,2^6-dimethyl-3-oxo-5^2,5^3-dihydro-1^1H,5^1H-9-oxa-4-aza-5(2,1)-benzo[d]imidazola-2(2,4)-pyridina-1(4,5)-pyrazola-7(1,3)-cyclobutanacyclononaphane-5^6-yl)-2-oxopiperazin-1-yl)piperidin-1-yl)pyridin-2-yl)piperidine-2,6-dione]",72.9,85.9
"Cc1cc2cc(n1)-c1cnn(C)c1OC[C@H]1C[C@@H](CN3/C(=N/C2=O)Nc2ccc(N4CCN(C5CCN(c6ccc(C7CCC(=O)NC7=O)nc6C)CC5)C[C@@H]4C)cc23)C1 (stereo partly drawn) [Example 33, 3-(5-(4-((S)-4-((7^1s,7^3R,E)-1^1,2^6-dimethyl-3-oxo-5^2,5^3-dihydro-1^1H,5^1H-9-oxa-4-aza-5(2,1)-benzo[d]imidazola-2(2,4)-pyridina-1(4,5)-pyrazola-7(1,3)-cyclobutanacyclononaphane-5^6-yl)-3-methylpiperazin-1-yl)piperidin-1-yl)-6-methylpyridin-2-yl)piperidine-2,6-dione]",89.4,93.3
"Cc1cc2cc(n1)-c1cnn(C)c1OC[C@H]1C[C@@H](CN3/C(=N/C2=O)Nc2ccc(N4CCN([C@H]5CCN(c6ccc(C7CCC(=O)NC7=O)nc6C)CC5(F)F)CC4)cc23)C1 (stereo partly drawn) [Example 125, 3-(5-((S)-4-(4-((7^1s,7^3R,E)-1^1,2^6-dimethyl-3-oxo-5^2,5^3-dihydro-1^1H,5^1H-9-oxa-4-aza-5(2,1)-benzo[d]imidazola-2(2,4)-pyridina-1(4,5)-pyrazola-7(1,3)-cyclobutanacyclononaphane-5^6-yl)piperazin-1-yl)-3,3-difluoropiperidin-1-yl)-6-methylpyridin-2-yl)piperidine-2,6-dione]",89.9,86.8
"Cc1cc2cc(n1)-c1cnn(C)c1OC[C@H]1C[C@@H](CN3/C(=N/C2=O)Nc2ccc(N4CCN(C5CCN(c6cnc(C7CCC(=O)NC7=O)cc6C)CC5)CC4)cc23)C1 (stereo partly shown) [Example 40, 3-(5-(4-(4-((7^1s,7^3s,E)-1^1,2^6-dimethyl-3-oxo-5^2,5^3-dihydro-1^1H,5^1H-9-oxa-4-aza-5(2,1)-benzo[d]imidazola-2(2,4)-pyridina-1(4,5)-pyrazola-7(1,3)-cyclobutanacyclononaphane-5^6-yl)piperazin-1-yl)piperidin-1-yl)-4-methylpyridin-2-yl)piperidine-2,6-dione]",91.5,93.6
"Cc1cc2cc(n1)-c1cnn(C)c1OC[C@H]1C[C@@H](CN3/C(=N/C2=O)Nc2ccc(N4CCN([C@H]5CCN(c6ccc(C7CCC(=O)NC7=O)nc6C)C[C@H]5F)CC4)cc23)C1 (stereo partly drawn) [Example 19, 3-(5-((3R,4S)-4-(4-((7^1s,7^3R,E)-1^1,2^6-dimethyl-3-oxo-5^2,5^3-dihydro-1^1H,5^1H-9-oxa-4-aza-5(2,1)-benzo[d]imidazola-2(2,4)-pyridina-1(4,5)-pyrazola-7(1,3)-cyclobutanacyclononaphane-5^6-yl)piperazin-1-yl)-3-fluoropiperidin-1-yl)-6-methylpyridin-2-yl)piperidine-2,6-dione]",92.8,92.2
"Cc1cc2cc(n1)-c1cnn(C)c1OC[C@H]1C[C@@H](CN3/C(=N/C2=O)Nc2ccc(N4CCC(N5CCN(c6cc(F)c([C@H]7CCC(=O)NC7=O)c(F)c6)CC5=O)CC4)cc23)C1 [Example 70, (R)-3-(4-(4-(1-((7^1s,7^3s,E)-1^1,2^6-dimethyl-3-oxo-5^2,5^3-dihydro-1^1H,5^1H-9-oxa-4-aza-5(2,1)-benzo[d]imidazola-2(2,4)-pyridina-1(4,5)-pyrazola-7(1,3)-cyclobutanacyclononaphane-5^6-yl)piperidin-4-yl)-3-oxopiperazin-1-yl)-2,6-difluorophenyl)piperidine-2,6-dione]",88.7,91.8
"Cc1cc2cc(n1)-c1cnn(C)c1OC[C@H]1C[C@@H](CN3/C(=N/C2=O)Nc2ccc(N4CCN(C5CCN(c6ccc(C7CCC(=O)NC7=O)nc6C)CC5)CC45COC5)cc23)C1 (stereo partly shown) [Example 124, 3-(5-(4-(5-((7^1s,7^3S,E)-1^1,2^6-dimethyl-3-oxo-5^2,5^3-dihydro-1^1H,5^1H-9-oxa-4-aza-5(2,1)-benzo[d]imidazola-2(2,4)-pyridina-1(4,5)-pyrazola-7(1,3)-cyclobutanacyclononaphane-5^6-yl)-2-oxa-5,8-diazaspiro[3.5]nonan-8-yl)piperidin-1-yl)-6-methylpyridin-2-yl)piperidine-2,6-dione]",82.6,87.5
